Laboratory results taken from ChEMBL document CHEMBL1201862, “PubChem BioAssay data set” (2004).
“And” between values parts separate entries of the source, which are not always exact repeats. Equal values may be shown once.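 Interpolation was linear, between the two tested concentrations surrounding the appropriate level; five concentrations were tested over 48 hours in 96-well plates. GI50: concentration for 50% inhibition of growth.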 The source made the active and inactive calls. Cut-off read from the data, not from the text of the source: active = GI50 up to about 1.1 µM and inactive = higher.

What was measured:
Test in all cases: inhibition of tumour cell growth, NCI panel, 48 h
HL-60 = tested on: HL-60
IGROV-1 = tested on: IGROV-1
LOX IMVI = tested on: LOX IMVI
UACC-62 = tested on: UACC-62
SR = tested on: SR
CCRF-CEM = tested on: CCRF-CEM
MCF7 = tested on: MCF7
SK-MEL-2 = tested on: SK-MEL-2
NCI-H460 = tested on: NCI-H460
A498 = tested on: A498
OVCAR-3 = tested on: OVCAR-3
CAKI-1 = tested on: CAKI-1
UACC-257 = tested on: UACC-257
HCC 2998 = tested on: HCC 2998
NCI-H23 = tested on: NCI-H23
HOP-92 = tested on: HOP-92
EKVX = tested on: EKVX
MDA-MB-231 = tested on: MDA-MB-231
Malme-3M = tested on: Malme-3M
COLO 205 = tested on: COLO 205
NCI/ADR-RES = tested on: NCI/ADR-RES
SNB-19 = tested on: SNB-19
SF-539 = tested on: SF-539
UO-31 = tested on: UO-31
ACHN = tested on: ACHN
HCT-15 = tested on: HCT-15
786-0 = tested on: 786-0
TK-10 = tested on: TK-10
OVCAR-5 = tested on: OVCAR-5
RPMI-8226 = tested on: RPMI-8226
HCT-116 = tested on: HCT-116
SK-MEL-5 = tested on: SK-MEL-5
NCI-H522 = tested on: NCI-H522
K562 = tested on: K562
T47D = tested on: T47D
SN12C = tested on: SN12C
RXF 393 = tested on: RXF 393
KM12 = tested on: KM12
NCI-H226 = tested on: NCI-H226
SW-620 = tested on: SW-620
SK-OV-3 = tested on: SK-OV-3
M14 = tested on: M14
OVCAR-8 = tested on: OVCAR-8
SNB-75 = tested on: SNB-75
A549 = tested on: A549
PC-3 = tested on: PC-3
SF-295 = tested on: SF-295
MOLT-4 = tested on: MOLT-4
SK-MEL-28 = tested on: SK-MEL-28
OVCAR-4 = tested on: OVCAR-4
MDA-MB-435 = tested on: MDA-MB-435
HT-29 = tested on: HT-29
BT-549 = tested on: BT-549
Hs-578T = tested on: Hs-578T
DU-145 = tested on: DU-145
HOP-62 = tested on: HOP-62
U-251 = tested on: U-251
SF-268 = tested on: SF-268

Measured: GI50

Cc1ccc(Nc2nc(=S)[nH]c3[nH]ncc23)cc1
inactive: HL-60 48.8 µM | IGROV-1 30.1 µM | LOX IMVI 37.5 µM | UACC-62 37.7 µM | SR 36.1 µM | CCRF-CEM 1.39 µM | MCF7 37.3 µM | SK-MEL-2 82.4 µM | NCI-H460 64.6 µM | A498 37 µM | OVCAR-3 50.4 µM | CAKI-1 58.1 µM | UACC-257 84.5 µM | HCC 2998 77.3 µM | NCI-H23 59.7 µM | HOP-92 > 100 µM | EKVX > 100 µM | MDA-MB-231 > 100 µM | Malme-3M > 100 µM | COLO 205 39.5 µM | NCI/ADR-RES > 100 µM | SNB-19 > 100 µM | SF-539 65.8 µM | UO-31 78 µM | ACHN 48.4 µM | 786-0 > 100 µM | TK-10 81.1 µM | OVCAR-5 > 100 µM | RPMI-8226 24 µM | HCT-116 91.2 µM | SK-MEL-5 37.6 µM | NCI-H522 32.2 µM | K562 49 µM | T47D 66.1 µM | SN12C 71.8 µM | RXF 393 > 100 µM | KM12 31 µM | NCI-H226 > 100 µM | SW-620 > 100 µM | SK-OV-3 > 100 µM | M14 > 100 µM | OVCAR-8 > 100 µM | SNB-75 > 100 µM | A549 61.2 µM | PC-3 51.2 µM | SF-295 71.3 µM | MOLT-4 > 100 µM | SK-MEL-28 48.3 µM | OVCAR-4 90.4 µM | MDA-MB-435 39.8 µM | HT-29 42.5 µM | BT-549 > 100 µM | Hs-578T 77.1 µM | DU-145 85.5 µM | HOP-62 > 100 µM | U-251 64.7 µM | SF-268 > 100 µM
47.6 µM: HCT-15

COc1cc(/C=C2\N=C(c3ccccc3)N(c3ccc(S(=O)(=O)Nc4nccs4)cc3)C2=O)ccc1O
57.5 µM: HCT-15
inactive: HL-60 51.2 µM | IGROV-1 > 100 µM | LOX IMVI 40.3 µM | UACC-62 43.9 µM | SR 59.7 µM | CCRF-CEM 70.5 µM | MCF7 67.1 µM | SK-MEL-2 > 100 µM | NCI-H460 > 100 µM | A498 > 100 µM | OVCAR-3 > 100 µM | CAKI-1 > 100 µM | UACC-257 > 100 µM | NCI-H23 > 100 µM | HOP-92 40.7 µM | EKVX 63.8 µM | Malme-3M > 100 µM | COLO 205 > 100 µM | NCI/ADR-RES > 100 µM | SNB-19 > 100 µM | SF-539 79.4 µM | UO-31 > 100 µM | ACHN > 100 µM | 786-0 > 100 µM | TK-10 > 100 µM | OVCAR-5 > 100 µM | RPMI-8226 45 µM | HCT-116 70.3 µM | SK-MEL-5 75.9 µM | NCI-H522 50.4 µM | K562 55.8 µM | T47D 85.5 µM | SN12C > 100 µM | RXF 393 62.2 µM | KM12 > 100 µM | NCI-H226 71 µM | SW-620 77.6 µM | SK-OV-3 > 100 µM | M14 > 100 µM | OVCAR-8 > 100 µM | SNB-75 62.8 µM | A549 > 100 µM | PC-3 82.6 µM | SF-295 > 100 µM | MOLT-4 > 100 µM | OVCAR-4 > 100 µM | MDA-MB-435 95.3 µM | HT-29 59.7 µM | BT-549 73.6 µM | Hs-578T > 100 µM | DU-145 > 100 µM | HOP-62 61.8 µM | U-251 75.5 µM | SF-268 51.9 µM

CC(C)CC(C/C=C1/CC(CO)(COC(=O)C(C)(C)C)OC1=O)CC(C)C (stereo not given)
active: CCRF-CEM 0.069 µM | NCI-H460 278 nM and 209 nM | HOP-92 0.893 µM | COLO 205 0.136 µM | K562 173 nM and 123 nM | MDA-MB-435 410 nM and 818 nM
inactive: IGROV-1 15.2 µM and 12.1 µM | UACC-62 11.7 µM and 15.2 µM | SR 1.51 µM | MCF7 19.7 µM and 18.2 µM | SK-MEL-2 16.4 µM and 11.9 µM | A498 10 µM and 9.02 µM | UACC-257 16.4 µM and 16.8 µM | HCC 2998 1.28 µM and 1.27 µM | NCI-H23 11.8 µM and 10.9 µM | MDA-MB-231 3.03 µM | NCI/ADR-RES 14 µM and 17.4 µM | SNB-19 10.5 µM and 6.03 µM | SF-539 6.49 µM | OVCAR-5 6.7 µM and 11.8 µM | HCT-116 15.9 µM and 13.8 µM | NCI-H522 14.1 µM and 14.8 µM | T47D 19.5 µM and 11.7 µM | SN12C 8.49 µM | RXF 393 16.1 µM and 21.8 µM | SW-620 4.37 µM and 4.92 µM | SK-OV-3 19.3 µM | M14 12.1 µM and 13.8 µM | OVCAR-8 19 µM and 17 µM | SNB-75 13.7 µM and 11.1 µM | PC-3 8.89 µM and 8.83 µM | MOLT-4 1.3 µM and 2.14 µM | OVCAR-4 16.2 µM and 18.2 µM | BT-549 11.7 µM and 15.5 µM | U-251 8.13 µM | SF-268 10.8 µM and 12.4 µM
15 µM and 14.7 µM: HCT-15
